Experiments:
Human OXER1 = target: T1, Human OXER1 (Homo sapiens, UniProt Q8TDS5); assay: BRET early endosome trafficking assay (OXER1-Rluc8 / rGFP-FYVE in HEK293 cells); assay type: cell-based; conditions: HEK293 cells transfected with OXER1-Rluc8 and rGFP-FYVE, 5-oxo-ETE agonist
T1 construct: host or cells: HEK293 cells, transient transfection
Excerpt: Background—The following assay can be used for determination of OXER1 activation in living HEK293 cells. Signalling functions of GPCRs are tightly regulated by endocytosis, the targeting of receptors to endosomes and their sorting to lysosomes or recycling to the plasma membrane. The early endosomes (EEs) trafficking assay (Namkung et al., Monitoring G protein-coupled receptor and β-arrestin trafficking in live cells using enhanced bystander BRET, Nat Commun 2016, 7: 12178) uses Rluc8-tagged OXER1 and Renilla GFP (rGFP) attached to the FYVE domain from human endofin/zinc finger FYVE domain-containing protein 16, which binds phosphatidylinositol 3-phosphate in EEs. Agonist stimulation of OXER1-Rluc8 leads to trafficking of the receptor to EEs, and ensuing increase of the donor concentration relative to the rGFP-FYVE acceptor anchored in the same cellular compartment, and thus results in an increase in BRET signal.
Plasmids—Human OXER1 VersaClone cDNA was obtained from R&D Systems. Rluc8 (A55T, C124A, S130A, K136R, A143M, M185V, M253L, and S287L variant of theRenilla renformis luciferase) gBlocks gene fragment (Integrated DNA Technologies, IA) was inserted with linker in frame at the C-terminus of OXER1. The FYVE domain from human endofin (residues Q739 to K806) attached in frame at the C terminus of a humanized Renilla GFP (rGFP), were synthesized as gBlocks gene fragments.
Bioluminescence Resonance Energy Transfer (BRET) Measurement—HEK293 cells were transfected with OXER1-Rluc8 and rGFP-FYVE. The following day, transiently transfected cells were seeded in 96-well white clear bottom microplates coated with poly-D-lysine and left in culture for 24 hours. Cells were washed once with Tyrode's buffer (140 mmol/L NaCl, 1 mmol/L CaCl2, 2.7 mmol/L KCl, 0.49 mmol/L MgCl2, 0.37 mmol/L NaH2PO4, 5.6 mmol/L glucose, 12 mmol/L NaHCO3, and 25 mmol/L HEPES, pH 7.5) before performing assays in Tyrode's buffer. Test compounds were incubated with cells for 15 minutes at 37° C. before addition of […] of the OXER1 agonist 5-oxo-6E,8Z,1IZ,14Z-eicosatetraenoic acid (5-oxo-ETE) for 45 minutes at 37° C. The Rluc8 substrate coelenterazine 400A (Prolume, Lakeside, AZ) was added at a final concentration of […] and BRET readings were collected using a Spark or Infinite M1000 microplate reader (Tecan, Morrisville, NC). BRET^2 readings between Rluc8 and rGFP were collected by sequential integration of the signals detected in the 370 to 450 nm (Rluc8) and 510 to 540 nm (rGFP) windows. The BRET signal was calculated as the ratio of light emitted by acceptor (rGFP) over the light emitted by donor (Rluc8). Ligand-promoted net BRET values were calculated by subtracting vehicle-induced net BRET from ligand-induced net BRET.

neutrophils = assay: Neutrophil calcium flux assay (5-OXO-ETE-stimulated, Indo-1 fluorescence); assay type: cell-based; conditions: Neutrophil, 5-OXO-ETE-stimulated calcium flux
Method in brief: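 Indo-1-loaded neutrophils (5×10^6 cells/ml, 30 min at 37 °C) in HBSS with Ca/Mg and HEPES, pre-incubated 5 min with antagonist or buffer. Stimulated with 5-OXO-ETE added at 200 nM (4× stock); fluorescence (ex 331/em 410 nm) read every 5 s for 30 cycles, expressed as net fluorescence.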

T1 sequence (Q8TDS5 whole entry): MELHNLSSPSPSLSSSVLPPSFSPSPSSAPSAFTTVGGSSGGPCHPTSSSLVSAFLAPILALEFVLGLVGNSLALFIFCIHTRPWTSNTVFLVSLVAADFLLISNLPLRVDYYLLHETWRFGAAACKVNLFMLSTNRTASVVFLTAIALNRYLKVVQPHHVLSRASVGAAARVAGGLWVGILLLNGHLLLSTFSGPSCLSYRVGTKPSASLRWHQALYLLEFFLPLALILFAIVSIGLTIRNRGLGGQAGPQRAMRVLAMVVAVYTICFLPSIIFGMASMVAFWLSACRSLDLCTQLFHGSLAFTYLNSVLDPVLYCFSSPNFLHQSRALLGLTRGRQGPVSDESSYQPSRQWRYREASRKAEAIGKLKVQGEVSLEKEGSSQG

SMILES | IC50 (Human OXER1) | IC50 (neutrophils)
C[C@H](CC(=O)O)CC(=O)n1c(CCCCCCc2cccc(Cl)c2)cc2ccc(Cl)cc21 [Compound I-39] | 100 to 300 nM | > 300 nM
[2H]C([2H])([2H])n1c(CCCCCCc2cccc(Cl)c2)c(C(=O)C[C@H](C)CC(=O)O)c2cc(Cl)ccc21 [Compound I-40] | < 100 nM | < 100 nM
C[C@H](CC(=O)O)CC(=O)c1c(CCCCCC(O)c2cccc(Cl)c2)n(C)c2ccc(Cl)cc12 (stereo partly drawn) [Compound I-44] | < 100 nM | < 100 nM
C[C@H](CC(=O)O)CC(=O)c1c(CCCCCC(=O)c2cccc(Cl)c2)n(C)c2ccc(Cl)cc12 [Compound I-45] | 100 to 300 nM | 100 to 300 nM
C[C@H](CC(=O)O)CC(=O)c1c(CCCCCC(F)c2cccc(Cl)c2)n(C)c2ccc(Cl)cc12 (stereo partly drawn) [Compound I-47] | < 100 nM | < 100 nM
C[C@H](CC(=O)O)CC(=O)c1c(CCCCCCc2ccc(O)c(Cl)c2)n(C)c2ccc(Cl)cc12 [Compound I-48] | < 100 nM | < 100 nM
C[C@H](CC(=O)O)CC(=O)c1c(CCCCCOc2cccc(Cl)c2)n(C)c2ccc(Cl)cc12 [Compound I-59] | 100 to 300 nM | < 100 nM
C[C@H](CC(=O)O)CC(=O)c1c(CCCCOCc2cccc(Cl)c2)n(C)c2ccc(Cl)cc12 [Compound I-60] | 100 to 300 nM | < 100 nM
CC(C)C#CCCCCCCc1c(C(=O)C[C@H](C)CC(=O)O)c2cc(Cl)ccc2n1C [Compound I-68] | < 100 nM | < 100 nM
CC(C)CCOCc1c(C(=O)C[C@H](C)CC(=O)O)c2cc(Cl)ccc2n1C [Compound I-73] | > 300 nM | > 300 nM
C[C@H](CC(=O)O)CC(=O)c1c(CCCCOCc2cccc(Cl)c2)n(C)c2ncc(Cl)cc12 [Compound I-83] | 100 to 300 nM | < 100 nM
C[C@H](CC(=O)O)CC(=O)c1c(CCCCCC(O)c2cccc(Cl)c2)n(C)c2ncc(Cl)cc12 (stereo partly drawn) [Compound I-85] | < 100 nM | < 100 nM
C[C@H](CC(=O)O)CC(=O)c1c(CCCCCCc2cccc(Cl)c2)n(C)c2ccc(C#N)cc12 [Compound I-98] | < 100 nM | < 100 nM
CC(CC(=O)O)CC(=O)c1c(CCCCOCc2ccccc2)n(C)c2ncc(C#N)cc12 (stereo not drawn) [Compound I-104] | 100 to 300 nM | < 100 nM
C[C@H](CC(=O)O)CC(=O)c1c(CCCCOCc2ccccc2)n(C)c2ncc(C#N)cc12 [Compound I-105] | 100 to 300 nM | < 100 nM
C[C@H](CC(=O)O)CC(=O)c1c(CCCCOCc2cccc(Cl)c2)n(C)c2ccc(C#N)cc12 [Compound I-180] | < 100 nM | < 100 nM
C[C@H](CC(=O)O)CC(=O)c1c(CCCCOCc2cccc(Cl)c2)n(C)c2ncc(C(F)(F)F)cc12 [Compound I-182] | 100 to 300 nM | < 100 nM
CC(CC(=O)O)CC(=O)c1c(CCCCOCc2cccc(Cl)c2)n(C)c2ccc(C(F)(F)F)cc12 (stereo not drawn) [Compound I-185] | 100 to 300 nM | < 100 nM
